# Measured values reported in patent US9493441B2, “Acyclic cyanoethylpyrazoles as janus kinase inhibitors” (Merck Sharp & Dohme Corp., priority 2011, dated 2016).
# Where two headings read alike, the source gives them in different places.
# What was measured:
# JAK1 = JAK1 (Homo sapiens (Human), UniProt P23458); assay: Jak biochemical HTRF assay, JAK1
# JAK2 = JAK2 (Homo sapiens (Human), UniProt O60674); assay: Jak biochemical HTRF assay, JAK2
# [1] = JAK1 IC50 (nM), recombinant GST-tagged catalytic domain, [ATP] 31.8 μM
# [2] = JAK2 IC50 (nM), recombinant GST-tagged catalytic domain, [ATP] […]
# JAK1, sequence (P23458 875-1153): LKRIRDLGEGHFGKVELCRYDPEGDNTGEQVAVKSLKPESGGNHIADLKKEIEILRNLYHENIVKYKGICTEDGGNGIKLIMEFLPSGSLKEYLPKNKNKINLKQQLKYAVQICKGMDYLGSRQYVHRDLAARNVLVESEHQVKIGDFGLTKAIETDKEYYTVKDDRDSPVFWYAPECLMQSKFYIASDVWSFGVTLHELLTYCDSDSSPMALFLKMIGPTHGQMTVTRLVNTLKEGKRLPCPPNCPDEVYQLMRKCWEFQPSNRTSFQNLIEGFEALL
# JAK2, sequence (O60674 849-1124): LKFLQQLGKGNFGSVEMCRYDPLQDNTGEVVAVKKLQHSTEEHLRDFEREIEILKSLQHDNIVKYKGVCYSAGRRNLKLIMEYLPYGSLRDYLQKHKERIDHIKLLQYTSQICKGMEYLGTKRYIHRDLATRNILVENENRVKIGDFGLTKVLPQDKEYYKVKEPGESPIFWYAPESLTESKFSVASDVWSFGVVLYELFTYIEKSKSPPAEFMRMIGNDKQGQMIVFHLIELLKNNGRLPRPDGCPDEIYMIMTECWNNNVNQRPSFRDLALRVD
SMILES,IC50 (JAK1; [1]) [nM],IC50 (JAK2; [2]) [nM],"IC50 (JAK1; read-out: JAK1 IC50, recombinant GST-tagged catalytic domain, [ATP] 31.8 μM) [nM]","IC50 (JAK2; read-out: JAK2 IC50, recombinant GST-tagged catalytic domain, [ATP] […]) [nM]"
"CN(C)S(=O)(=O)c1ccc(Nc2nn(C(CC#N)C3CC3)cc2C(N)=O)cc1 (centres unmarked) [Example 6-4, 1-(2-cyano-1-cyclopropylethyl)-3-{[4-(dimethylsulfamoyl)phenyl]amino}-1H-pyrazole-4-carboxamide]",1,3,,
"CC(C)(C)OC(=O)N1CCC(C(CC#N)n2cc(C(N)=O)c(Nc3ccc(F)cc3)n2)C1 (centres unmarked) [Example 1-3, tert-butyl 3-(1-{4-carbamoyl-3-[(4-fluorophenyl)amino]-1H-pyrazol-1-yl}-2-cyanoethyl)pyrrolidine-1-carboxylate]",267,1480,,
"Cc1nnc(-c2ccc(Nc3nn(C(CC#N)C4CC4)cc3C(N)=O)cc2)o1 (centres unmarked) [Example 4-25, 1-(2-cyano-1-cyclopropylethyl)-3-{[4-(5-methyl-1,3,4-oxadiazol-2-yl)phenyl]amino}-1H-pyrazole-4-carboxamide]",42,221,,
"N#CCc1ccc(Nc2nn(C(CC#N)C3CC3)cc2C(N)=O)cc1 (centres unmarked) [Example 4-8, 1-(2-cyano-1-cyclopropylethyl)-3-{[4-(cyanomethyl)phenyl]amino}-1H-pyrazole-4-carboxamide]",5,24,,
"N#CCC(C1CC1)n1cc(C(N)=O)c(Nc2ccc3c(c2)C=CS3(=O)=O)n1 (centres unmarked) [Example 4-35, 1-(2-cyano-1-cyclopropylethyl)-3-[(1,1-dioxido-1-benzothiophen-5-yl)amino]-1H-pyrazole-4-carboxamide]",2,34,,
"N#CCC(C1CC1)n1cc(C(N)=O)c(Nc2cccc(C(F)(F)F)c2)n1 (centres unmarked) [Example 4-4, 1-(2-cyano-1-cyclopropylethyl)-3-{[3-(trifluoromethyl)phenyl]amino}-1H-pyrazole-4-carboxamide]",82,394,,
"N#CCC(C1CC1)n1cc(C(N)=O)c(Nc2ccnc(F)c2)n1 (centres unmarked) [Example 4-37, 1-(2-cyano-1-cyclopropylethyl)-3-[(2-fluoropyridin-4-yl)amino]-1H-pyrazole-4-carboxamide]",5,44,,
"CC(CC#N)n1cc(C(N)=O)c(Nc2ccc(S(C)(=O)=O)cc2)n1 (centres unmarked) [Example 10, 1-(2-Cyano-1-methylethyl)-3-{[4-(methylsulfonyl)phenyl]amino}-1H-pyrazole-4-carboxamide]",7,45,,
"N#CCC(C1CC1)n1cc(C(N)=O)c(Nc2ccc3c(c2)CN(CC(=O)O)C3=O)n1 (centres unmarked) [Example 8, (5-{[4-Carbamoyl-1-(2-cyano-1-cyclopropylethyl)-1H-pyrazol-3-yl]amino}-1-oxo-1,3-dihydro-2H-isoindol-2-yl)acetic acid]",1,34,,
"N#CCC(C1CC1)n1cc(C(N)=O)c(Nc2ccc(S(=O)(=O)C(F)(F)F)cc2)n1 (centres unmarked) [Example 4-28, 1-(2-cyano-1-cyclopropylethyl)-3-({4-[(trifluoromethyl)sulfonyl]phenyl}amino)-1H-pyrazole-4-carboxamide]",11,75,,
"N#CCC(C1CC1)n1cc(C(N)=O)c(Nc2ccc3c(c2)CCC3=O)n1 (centres unmarked) [Example 4-19, 1-(2-cyano-1-cyclopropylethyl)-3-[(1-oxo-2,3-dihydro-1H-inden-5-yl)amino]-1H-pyrazole-4-carboxamide]",2,17,,
"N#CCC(C1CC1)n1cc(C(N)=O)c(Nc2ccc3ccncc3c2)n1 (centres unmarked) [Example 4-15, 1-(2-cyano-1-cyclopropylethyl)-3-(isoquinolin-7-ylamino)-1H-pyrazole-4-carboxamide]",9,39,,
"CC(C)(C)OC(=O)N1CCC(C(CC#N)n2cc(C(N)=O)c(Nc3ccccc3)n2)CC1 (centres unmarked) [Example 1-2, tert-butyl 4-{1-[4-carbamoyl-3-(phenylamino)-1H-pyrazol-1-yl]-2-cyanoethyl}piperidine-1-carboxylate]",7,228,,
"N#CCC(CC1CCOCC1)n1cc(C(N)=O)c(Nc2ccccc2)n1 (centres unmarked) [Example 1-10, 1-[2-cyano-1-(tetrahydro-2H-pyran-4-ylmethyl)ethyl]-3-(phenylamino)-1H-pyrazole-4-carboxamide]",289,1480,,
"N#CCC(C1CC1)n1cc(C(N)=O)c(Nc2ccc(S(=O)(=O)C(F)F)cc2)n1 (centres unmarked) [Example 4-29, 1-(2-cyano-1-cyclopropylethyl)-3-({4-[(difluoromethyl)sulfonyl]phenyl}amino)-1H-pyrazole-4-carboxamide]",2,13,,
"N#CCC(C1CC1)n1cc(C(N)=O)c(Nc2ccccc2F)n1 (centres unmarked) [Example 4-5, 1-(2-cyano-1-cyclopropylethyl)-3-[(2-fluorophenyl)amino]-1H-pyrazole-4-carboxamide]",360,1480,,
"COc1cc(Nc2nn(C(CC#N)C3CC3)cc2C(N)=O)ccn1 (centres unmarked) [Example 4-12, 1-(2-cyano-1-cyclopropylethyl)-3-[(2-methoxypyridin-4-yl)amino]-1H-pyrazole-4-carboxamide]",7,66,,
"N#CCC(C1CC1)n1cc(C(N)=O)c(Nc2ccc3c(c2)OCCO3)n1 (centres unmarked) [Example 4-20, 1-(2-cyano-1-cyclopropylethyl)-3-(2,3-dihydro-1,4-benzodioxin-6-ylamino)-1H-pyrazole-4-carboxamide]",24,87,,
"N#CCC(n1cc(C(N)=O)c(Nc2ccccc2)n1)C(F)(F)F (centres unmarked) [Example 2, 1-(3-Cyano-1,1,1-trifluoropropan-2-yl)-3-(phenylamino)-1H-pyrazole-4-carboxamide]",124,339,,
"Cc1c(Cl)ncnc1N1CCC([C@H](CC#N)n2cc(C(N)=O)c(Nc3ccc(F)cc3)n2)CC1 [Example 13, 1-{(1S)-1-[1-(6-Chloro-5-methylpyrimidin-4-yl)piperidin-4-yl]-2-cyanoethyl}-3-[(4-fluorophenyl)amino]-1H-pyrazole-4-carboxamide]",823,1500,,

# Next, values leading:
IC50 (JAK1; [1]) [nM],IC50 (JAK2; [2]) [nM],"IC50 (JAK1; read-out: JAK1 IC50, recombinant GST-tagged catalytic domain, [ATP] 31.8 μM) [nM]","IC50 (JAK2; read-out: JAK2 IC50, recombinant GST-tagged catalytic domain, [ATP] […]) [nM]",SMILES
10,79,,,"N#CCC(C1CC1)n1cc(C(N)=O)c(Nc2ccccc2)n1 (single isomer, unassigned) [Example 17-3, 1-[(1S or 1R)-2-cyano-1-cyclopropylethyl]-3-(phenylamino)-1H-pyrazole-4-carboxamide]"
7,425,,,"N#CC[C@@H](C1CCN(C(=O)OCC(F)(F)F)CC1)n1cc(C(N)=O)c(Nc2ccc(F)cc2)n1 [Example 11-7, 2,2,2-trifluoroethyl 4-[(1S)-1-{4-carbamoyl-3-[(4-fluorophenyl)amino]-1H-pyrazol-1-yl}-2-cyanoethyl]piperidine-1-carboxylate]"
,,136,800,"CC[C@@H](CC#N)n1cc(C(N)=O)c(Nc2ccccc2)n1 (single isomer, unassigned) [Example 16-2, 1-[(1R or 1S)-1-(cyanomethyl)propyl]-3-(phenylamino)-1H-pyrazole-4-carboxamide]"
181,1500,,,"N#CC[C@@H](C1CCN(C(=O)OCC2CCOC2)CC1)n1cc(C(N)=O)c(Nc2ccc(F)cc2)n1 (stereo partly drawn) [Example 11-12, tetrahydrofuran-3-ylmethyl 4-[(1S)-1-{4-carbamoyl-3-[(4-fluorophenyl)amino]-1H-pyrazol-1-yl}-2-cyanoethyl]piperidine-1-carboxylate]"
753,1500,,,"N#CC[C@@H](C1CCN(C(=O)OCCN2CCOCC2)CC1)n1cc(C(N)=O)c(Nc2ccc(F)cc2)n1 [Example 11-13, 2-morpholin-4-ylethyl 4-[(1S)-1-{4-carbamoyl-3-[(4-fluorophenyl)amino]-1H-pyrazol-1-yl}-2-cyanoethyl]piperidine-1-carboxylate]"
52,861,,,"N#CC[C@@H](C1CCN(C(=O)OC2COC2)CC1)n1cc(C(N)=O)c(Nc2ccc(F)cc2)n1 [Example 11-4, oxetan-3-yl 4-[(1S)-1-{4-carbamoyl-3-[(4-fluorophenyl)amino]-1H-pyrazol-1-yl}-2-cyanoethyl]piperidine-1-carboxylate]"
628,1500,,,"N#CC[C@@H](C1CCN(C(=O)OC2CCCCC2)CC1)n1cc(C(N)=O)c(Nc2ccc(F)cc2)n1 (single isomer, unassigned) [Example 12-5, cyclohexyl 4-[(1S or 1R)-1-{4-carbamoyl-3-[(4-fluorophenyl)amino]-1H-pyrazol-1-yl}-2-cyanoethyl]piperidine-1-carboxylate]"
55,890,,,"COC(=O)N1CCC(C(CC#N)n2cc(C(N)=O)c(Nc3ccc(F)cc3)n2)CC1 (centres unmarked) [Example 11-2, methyl 4-(1-{4-carbamoyl-3-[(4-fluorophenyl)amino]-1H-pyrazol-1-yl}-2-cyanoethyl)piperidine-1-carboxylate]"
190,1500,,,"N#CC[C@@H](C1CCN(C(=O)OCc2ccccc2)CC1)n1cc(C(N)=O)c(Nc2ccc(F)cc2)n1 (single isomer, unassigned) [Example 12-6, benzyl 4-[(1S or 1R)-1-{4-carbamoyl-3-[(4-fluorophenyl)amino]-1H-pyrazol-1-yl}-2-cyanoethyl]piperidine-1-carboxylate]"
959,1500,,,"CN(C)CCOC(=O)N1CCC([C@H](CC#N)n2cc(C(N)=O)c(Nc3ccc(F)cc3)n2)CC1 (stereo in doubt) [Example 11-1, 2-(Dimethylamino)ethyl 4-(1-{4-carbamoyl-3-[(4-fluorophenyl)amino]-1H-pyrazol-1-yl}-2-cyanoethyl)piperidine-1-carboxylate]"
718,1500,,,"CC(C)(C)COC(=O)N1CCC([C@H](CC#N)n2cc(C(N)=O)c(Nc3ccc(F)cc3)n2)CC1 (single isomer, unassigned) [Example 12-2, 2,2-dimethylpropyl 4-[(1S or 1R)-1-{4-carbamoyl-3-[(4-fluorophenyl)amino]-1H-pyrazol-1-yl}-2-cyanoethyl]piperidine-1-carboxylate]"
